Reference: ChEMBL document CHEMBL4828771, “Discovery and Development of a Potent, Selective, and Orally Bioavailable CHK1 Inhibitor Candidate: 5-((4-((3-Amino-3-methylbutyl)amino)-5-(trifluoromethyl)pyrimidin-2-yl)amino)picolinonitrile” (J Med Chem, 2021)

What was measured:
[1] = biological target: T1, Serine/threonine-protein kinase Chk1 (Homo sapiens, UniProt O14757); assay: Inhibition of CHK1 (unknown origin) incubated for 1 hr in presence of ATP by HTRF assay
T1 sequence (O14757 whole entry): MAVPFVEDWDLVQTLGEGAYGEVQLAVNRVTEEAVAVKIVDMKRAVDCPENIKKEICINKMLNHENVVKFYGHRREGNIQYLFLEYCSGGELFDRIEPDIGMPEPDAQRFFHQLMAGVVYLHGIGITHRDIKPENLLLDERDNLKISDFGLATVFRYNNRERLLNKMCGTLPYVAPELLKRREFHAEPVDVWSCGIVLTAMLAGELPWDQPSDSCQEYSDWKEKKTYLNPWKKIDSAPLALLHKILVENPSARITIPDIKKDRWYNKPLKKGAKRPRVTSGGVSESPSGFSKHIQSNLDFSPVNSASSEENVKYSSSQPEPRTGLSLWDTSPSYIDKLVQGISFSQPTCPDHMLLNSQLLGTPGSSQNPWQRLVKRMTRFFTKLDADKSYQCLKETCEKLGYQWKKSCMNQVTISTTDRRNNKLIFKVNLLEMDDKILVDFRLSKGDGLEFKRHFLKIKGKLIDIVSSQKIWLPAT

[2] = biological target: hERG (KCNH2) (Homo sapiens, UniProt Q12809); assay: Inhibition of human ERG expressed in HEK293 cells at 10 uM by patch-clamp technique relative to control; format: cell-based; settings: HEK293 cells that express hERG
Chain of hERG (KCNH2) (Q12809 whole entry): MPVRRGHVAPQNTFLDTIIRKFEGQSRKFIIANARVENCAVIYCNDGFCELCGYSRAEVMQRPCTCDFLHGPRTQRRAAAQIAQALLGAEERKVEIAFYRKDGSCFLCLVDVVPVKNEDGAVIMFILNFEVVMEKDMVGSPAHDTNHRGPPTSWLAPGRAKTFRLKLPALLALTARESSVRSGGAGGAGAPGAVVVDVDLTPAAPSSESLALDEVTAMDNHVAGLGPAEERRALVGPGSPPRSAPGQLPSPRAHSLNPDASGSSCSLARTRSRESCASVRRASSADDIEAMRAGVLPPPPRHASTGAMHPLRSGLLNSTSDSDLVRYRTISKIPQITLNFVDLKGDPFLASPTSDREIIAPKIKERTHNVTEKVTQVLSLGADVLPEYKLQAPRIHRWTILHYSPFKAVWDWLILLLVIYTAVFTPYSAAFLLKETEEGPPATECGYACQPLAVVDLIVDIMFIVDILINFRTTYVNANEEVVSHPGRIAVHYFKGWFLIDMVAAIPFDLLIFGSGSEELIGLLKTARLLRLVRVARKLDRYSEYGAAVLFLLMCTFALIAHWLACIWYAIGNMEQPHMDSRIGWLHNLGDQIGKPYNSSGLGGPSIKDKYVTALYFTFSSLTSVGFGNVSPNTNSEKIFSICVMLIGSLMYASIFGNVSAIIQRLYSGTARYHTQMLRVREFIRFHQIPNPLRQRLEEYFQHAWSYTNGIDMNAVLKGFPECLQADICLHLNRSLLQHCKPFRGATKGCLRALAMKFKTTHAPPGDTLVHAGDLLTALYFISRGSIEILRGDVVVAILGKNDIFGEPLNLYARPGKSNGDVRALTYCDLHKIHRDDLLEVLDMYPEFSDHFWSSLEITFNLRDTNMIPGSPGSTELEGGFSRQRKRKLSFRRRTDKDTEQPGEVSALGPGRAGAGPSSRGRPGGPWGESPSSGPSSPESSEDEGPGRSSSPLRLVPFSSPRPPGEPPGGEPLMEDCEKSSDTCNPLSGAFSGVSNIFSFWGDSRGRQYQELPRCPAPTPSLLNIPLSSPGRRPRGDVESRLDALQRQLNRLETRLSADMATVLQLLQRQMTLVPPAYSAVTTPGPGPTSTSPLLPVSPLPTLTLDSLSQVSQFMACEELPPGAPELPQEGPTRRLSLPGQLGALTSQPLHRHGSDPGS

[3] = system: MV4-11; assay: Antiproliferation activity against human MV4-11 cells assessed as reduction in cell viability incubated for 72 hrs by MTS assay; format: functional, cell-based; settings: MV4-11, 72 h
[4] = system: Z-138; assay: Antiproliferation activity against human Z138 cells assessed as reduction in cell viability incubated for 72 hrs by MTS assay; format: functional, cell-based; settings: Z-138, 72 h
[5] = AUCt in ICR mouse at 20 mg/kg, po measured after 0.083 to 48 hrs by LC-MS/MS analysis; format: ADME, organism-based; parameters: route oral, dose 20 mg/kg, time 0.083-48 hrs; settings: in vivo
[6] = Cmax in ICR mouse at 20 mg/kg, po measured after 0.083 to 48 hrs by LC-MS/MS analysis; format: ADME, organism-based; parameters: route oral, time upper 48 hrs, time lower 0.083 hrs, dose 20 mg/kg; settings: in vivo
[7] = Tmax in ICR mouse at 20 mg/kg, po measured after 0.083 to 48 hrs by LC-MS/MS analysis; format: ADME, organism-based; settings: in vivo, time 0.083-48 hrs
[8] = AUC (0 to infinity) in ICR mouse at 20 mg/kg, po measured after 0.083 to 48 hrs by LC-MS/MS analysis; format: ADME, organism-based; parameters: route oral, time upper 48 hrs, time lower 0.083 hrs, dose 20 mg/kg; settings: in vivo
[9] = Half life in ICR mouse at 20 mg/kg, po measured after 0.083 to 48 hrs by LC-MS/MS analysis; format: ADME, organism-based; settings: in vivo, time 0.083-48 hrs
[10] = MRT (0 to infinity) in ICR mouse at 20 mg/kg, po measured after 0.083 to 48 hrs by LC-MS/MS analysis; format: ADME, organism-based; settings: in vivo, time 0.083-48 hrs
[11] = system: MV4-11; assay: Antitumor activity against human MV4-11 cells xenografted in mouse assessed as inhibition of tumor growth by measuring T/C ratio at 30 mg/kg, po dosed 5 days/week for 3 weeks measured twice every week; format: functional

Row | IC50 [1] [nM] | IC50 [3] [nM] | SMILES | IC50 [4] [nM] | other results
1 | 20.2 | 140 | CNc1nc(Nc2cnc(C#N)c(NC[C@@H]3CCNC3)c2)ncc1C(F)(F)F | 270 | inhibition at 10 µM [2]: 2.4%
2 | 7.6 | 330 | CNc1nc(Nc2cnc(C#N)c(O[C@@H]3CCCNC3)c2)ncc1C(F)(F)F | 1390 | AUC(0-t) [5]: 166 ng·h/mL; Cmax [6]: 127 ng/mL; Tmax [7]: 1.08 h; AUC(0-inf) [8]: 168 ng·h/mL; inhibition at 10 µM [2]: 91.6%; half-life [9]: 0.7 h; MRT inf [10]: 1.57 h
3 | 51.1 | – | CNc1nc(Nc2cnc(C#N)c(NCCCN)c2)ncc1C(F)(F)F | – | –
4 | 33.1 | 70 | CNc1nc(Nc2cnc(C#N)c(N[C@H]3CC[C@H](N)CC3)c2)ncc1C(F)(F)F | 960 | inhibition at 10 µM [2]: 5.3%
5 | 244 | – | CNc1nc(Nc2cnc(C#N)c(OC[C@@H]3CCCNC3)c2)ncc1C(F)(F)F | – | –
6 | 502 | – | CNc1nc(Nc2cnc(C#N)c(N[C@H]3CCCNC3)c2)ncc1C(F)(F)F | – | –
7 | 355 | – | CNc1nc(Nc2cnc(C#N)c(O[C@H]3CCCNC3)c2)ncc1C(F)(F)F | – | –
8 | 45 | – | CNc1nc(Nc2cnc(C#N)c(O[C@H]3CCNC3)c2)ncc1C(F)(F)F | – | –
9 | 34 | 260 | CNc1nc(Nc2cnc(C#N)c(NCCN(C)C)c2)ncc1C(F)(F)F | 290 | –
10 | 993 | – | N#Cc1ccc(Nc2ncc(C(F)(F)F)c(NCC3CCCCN3)n2)cn1 (racemic) | – | –
11 | 27.9 | 180 | CNCCNc1cc(Nc2ncc(C(F)(F)F)c(NC)n2)cnc1C#N | 270 | inhibition at 10 µM [2]: 46.4%
12 | 59.5 | – | CNc1nc(Nc2cnc(C#N)c(N[C@H]3CCNC3)c2)ncc1C(F)(F)F | – | –
13 | 32.7 | 240 | CNc1nc(Nc2cnc(C#N)c(OC3CCNCC3)c2)ncc1C(F)(F)F | 440 | –
14 | 12.2 | 50 | CNc1nc(Nc2cnc(C#N)c(N[C@@H]3CCCNC3)c2)ncc1C(F)(F)F | 720 | inhibition at 10 µM [2]: 81.1%
15 | 101 | – | CNc1nc(Nc2cnc(C#N)c(NC3CCNCC3)c2)ncc1C(F)(F)F | – | –
16 | 110 | – | CNc1nc(Nc2cnc(C#N)c(NC[C@@H]3CCCNC3)c2)ncc1C(F)(F)F | – | –
17 | 46.9 | 160 | CNc1nc(Nc2cnc(C#N)c(NCC3CCCCN3)c2)ncc1C(F)(F)F (stereo unspecified) | 210 | –
18 | 119 | – | CNc1nc(Nc2cnc(C#N)c(N[C@@H]3CCN(C)C3)c2)ncc1C(F)(F)F | – | –
19 | 8.5 | 10 | CNc1nc(Nc2cnc(C#N)c(N[C@H]3CC[C@@H](N)CC3)c2)ncc1C(F)(F)F | 50 | inhibition at 10 µM [2]: 84.2%
20 | 21.3 | 430 | CNc1nc(Nc2cnc(C#N)c(O[C@@H]3CCNC3)c2)ncc1C(F)(F)F | 1410 | –
21 | 19.1 | 210 | CNc1nc(Nc2cnc(C#N)c(NCCN)c2)ncc1C(F)(F)F | 400 | inhibition at 10 µM [2]: 9%

Continued, compound first:

Row | SMILES | IC50 [1] [nM] | IC50 [3] [nM] | IC50 [4] [nM] | other results
22 | N#Cc1ccc(Nc2ncc(C(F)(F)F)c(NCCCNCCC(N)=O)n2)cn1 | 107 | – | – | –
23 | N#Cc1ccc(Nc2ncc(C(F)(F)F)c(NCCCNC3CCC3)n2)cn1 | 1490 | – | – | –
24 | CNc1nc(Nc2cnc(C#N)c(NC3CN4CCC3CC4)c2)ncc1C(F)(F)F (stereo unspecified) | 608 | – | – | –
25 | CNC(C)CCNc1nc(Nc2ccc(C#N)nc2)ncc1C(F)(F)F (stereo unspecified) | 16.3 | 150 | 350 | inhibition at 10 µM [2]: 35.5%
26 | CNc1nc(Nc2cnc(C#N)c(OC3CCN(C)CC3)c2)ncc1C(F)(F)F | 53.7 | – | – | –
27 | N#Cc1ccc(Nc2ncc(C(F)(F)F)c(NC3CN4CCC3CC4)n2)cn1 (stereo unspecified) | 307 | – | – | –
28 | N#Cc1ccc(Nc2ncc(C(F)(F)F)c(NCCCNC3CC3)n2)cn1 | 270 | – | – | –
29 | N#Cc1ccc(Nc2ncc(C(F)(F)F)c(NC3CCNCC3)n2)cn1 | 120 | – | – | –
30 | N#Cc1ccc(Nc2ncc(C(F)(F)F)c(NCCCNC3CCCC3)n2)cn1 | 5500 | – | – | –
31 | N#Cc1ccc(Nc2ncc(C(F)(F)F)c(NC[C@H]3CNCCO3)n2)cn1 | 37.3 | 400 | 1130 | inhibition at 10 µM [2]: 31.3%
32 | CNCCCNc1nc(Nc2ccc(C#N)nc2)ncc1C(F)(F)F | 12.9 | 240 | 300 | AUC(0-t) [5]: 6600 ng·h/mL; T/C [11]: 35.36%; Cmax [6]: 1530 ng/mL; Tmax [7]: 0.5 h; AUC(0-inf) [8]: 6700 ng·h/mL; inhibition at 10 µM [2]: 73.3%; half-life [9]: 4.12 h; MRT inf [10]: 5.62 h
33 | N#Cc1ccc(Nc2ncc(C(F)(F)F)c(NCC3CCNCC3)n2)cn1 | 65.5 | – | – | –
34 | CNc1nc(Nc2cnc(C#N)c(O[C@@H]3CCCNC3)c2)ncc1-c1cnn(C(F)(F)F)c1 | 6.8 | – | – | AUC(0-t) [5]: 126 ng·h/mL; Cmax [6]: 93 ng/mL; Tmax [7]: 2 h; AUC(0-inf) [8]: 130 ng·h/mL; half-life [9]: 0.89 h; MRT inf [10]: 2.58 h
35 | N#Cc1ccc(Nc2ncc(C(F)(F)F)c(NC[C@H]3CCCNC3)n2)cn1 | 111 | – | – | –
36 | N#Cc1ccc(Nc2ncc(C(F)(F)F)c(NC[C@@H]3CCNC3)n2)cn1 | 40.3 | 200 | 1170 | –
37 | N#Cc1ccc(Nc2ncc(C(F)(F)F)c(NCCCNCCN3CCOCC3)n2)cn1 | 1610 | – | – | –
38 | N#Cc1ccc(Nc2ncc(C(F)(F)F)c(N[C@H]3CCCNC3)n2)cn1 | 28.3 | 270 | 160 | inhibition at 10 µM [2]: 74.6%
39 | CC(C)NCCCNc1nc(Nc2ccc(C#N)nc2)ncc1C(F)(F)F | 1980 | – | – | –
40 | CC(C)(CN)CNc1nc(Nc2ccc(C#N)nc2)ncc1C(F)(F)F | 220 | – | – | –
41 | N#Cc1ccc(Nc2ncc(C(F)(F)F)c(NC3CCCNC3)n2)cn1 (racemic) | 69.5 | – | – | –
42 | N#Cc1ccc(Nc2ncc(C(F)(F)F)c(N[C@@H]3CCCNC3)n2)cn1 | 831 | – | – | –

Row | SMILES | IC50 [1] [nM] | IC50 [3] [nM] | IC50 [4] [nM] | other results
43 | CN1CCC(CNc2nc(Nc3ccc(C#N)nc3)ncc2C(F)(F)F)CC1 | 185 | – | – | –
44 | N#Cc1ccc(Nc2ncc(C(F)(F)F)c(NCCCNCC(O)CO)n2)cn1 (stereo unspecified) | 152 | – | – | –
45 | CN(C)CCCNc1nc(Nc2ccc(C#N)nc2)ncc1C(F)(F)F | 458 | – | – | –
46 | N#Cc1ccc(Nc2ncc(C(F)(F)F)c(NCCCN)n2)cn1 | 20.9 | 140 | 460 | AUC(0-t) [5]: 3300 ng·h/mL; T/C [11]: 29.94%; Cmax [6]: 2860 ng/mL; Tmax [7]: 0.5 h; AUC(0-inf) [8]: 4100 ng·h/mL; inhibition at 10 µM [2]: 43.4%; half-life [9]: 0.76 h; MRT inf [10]: 1.3 h
47 | N#Cc1ccc(Nc2ncc(C(F)(F)F)c(NC3CC4CCC(C3)N4)n2)cn1 (stereo unspecified) | 624 | – | – | –
48 | N#Cc1ccc(Nc2ncc(C(F)(F)F)c(N[C@H]3CCNC3)n2)cn1 | 214 | – | – | –
49 | N#Cc1ccc(Nc2ncc(C(F)(F)F)c(NCCCNC=O)n2)cn1 | 441 | – | – | –
50 | CC(N)CCNc1nc(Nc2ccc(C#N)nc2)ncc1C(F)(F)F (racemic) | 26.9 | 390 | 5700 | inhibition at 10 µM [2]: 31.6%
51 | COCCNCCCNc1nc(Nc2ccc(C#N)nc2)ncc1C(F)(F)F | 577 | – | – | –
52 | N#Cc1ccc(Nc2ncc(C(F)(F)F)c(NC[C@@H]3CCCNC3)n2)cn1 | 23.8 | 300 | 1190 | inhibition at 10 µM [2]: 41.1%
53 | CNc1nc(Nc2cnc(C#N)c(OCCCN)c2)ncc1C(F)(F)F | 78 | – | – | –
54 | N#Cc1ccc(Nc2ncc(C(F)(F)F)c(NCCCCN)n2)cn1 | 88.4 | – | – | –
55 | N#Cc1ccc(Nc2ncc(C(F)(F)F)c(NCCCNC3CCCCC3)n2)cn1 | 2260 | – | – | –
56 | N#Cc1ccc(Nc2ncc(C(F)(F)F)c(NCCCNCCO)n2)cn1 | 217 | – | – | inhibition at 10 µM [2]: 35.2%
57 | CS(=O)(=O)CCNCCCNc1nc(Nc2ccc(C#N)nc2)ncc1C(F)(F)F | 24.3 | 250 | 630 | AUC(0-t) [5]: 2520 ng·h/mL; Cmax [6]: 1690 ng/mL; Tmax [7]: 0.25 h; AUC(0-inf) [8]: 2710 ng·h/mL; inhibition at 10 µM [2]: 58.5%; half-life [9]: 2.38 h; MRT inf [10]: 2.42 h
58 | N#Cc1ccc(Nc2ncc(C(F)(F)F)c(N[C@H]3CC[C@@H](N)CC3)n2)cn1 | 44.2 | – | – | inhibition at 10 µM [2]: 36.8%
59 | CNc1nc(Nc2cnc(C#N)c(OCC3CCNCC3)c2)ncc1C(F)(F)F | 213 | – | – | –
60 | N#Cc1ccc(Nc2ncc(C(F)(F)F)c(NCCN)n2)cn1 | 217 | – | – | –
61 | N#Cc1ncc(Nc2ncc(C(F)(F)F)cn2)cc1O[C@@H]1CCCNC1 | 1010 | – | – | –
62 | N#Cc1ccc(Nc2ncc(C(F)(F)F)c(NCC3CCCNC3)n2)cn1 (racemic) | 62.6 | – | – | –
